Measurements as given in publication PMC2744931, “Glutamate Uptake Triggers Transporter-Mediated GABA Release from Astrocytes” (PLoS ONE, 2009).

Tests used:
GAT-3 = test system: GAT-3; set-up: method as in PMID 17408599, PMID 16274841; conditions: cited from earlier work
Glu decarboxylase (GAD) = assay: NMR (13C-HSQC) of [13C]GABA formation from [13C]Glu in rat cortical NPMV fraction; type: biochemical
Procedure: NPMV samples for NMR experiments were prepared as described before. NPMV fractions from the whole cortex were homogenized in 1 ml HEPES buffer containing 300 µM [^13C]Glu and were incubated at 30°C for 30 min. The homogenate was then centrifuged at 3500 g for 15 min. The supernatant (extracellular fraction) was stored and the pellet (intracellular fraction) was suspended in 1 ml HEPES buffer and frozen (−80°C) and thawed 3 times. In the NMR experiments on brain slices, 13 hippocampal slices were put in a 2 ml centrifuge tube and the ACSF was replaced with 1 ml ACSF containing 300 µM [^13C]Glu. The slices were incubated at 37°C for 30 min. Afterwards, the samples were frozen (−80°C) and thawed 3 times.
NMR experiments were carried out at 30°C on a Varian NMR SYSTEM (600 MHz for ^1H) four-channel spectrometer using a 5 mm indirect detection triple resonance (^1H^13C^15N) z-axis gradient probe. Samples (200 µl) were placed into 5 mm Shigemi NMR tubes. Gradient-enhanced ^1H/^13C heteronuclear correlation spectra (^13C-HSQC) were acquired with a ^1H spectral width of 9600 Hz and 2048 complex points, zero-filled to a total of 4096. […] Gaussian and exponential weighting functions were applied in the F2 dimension, while the indirectly detected dimensions were Gaussian weighted only. […]

[1] = test system: GABA transport in rat cerebrocortical NPMV (GAT-2/3); assay: [3H]GABA uptake in rat cerebrocortical native plasma membrane vesicles (NPMV) in the presence of 100 µM NNC-711; type: biochemical
Procedure: (§1) Cerebral cortices of 4–6 weeks old male Wistar rats (Toxicoop, Hungary) and frozen human brain tissue samples (Hungarian Brain Tissue Bank, Budapest) were used to prepare NPMV fractions, that contain numerous membrane vesicles of different sizes and shapes, a few intact synaptosomes and free mitochondria. […] Afterward, preincubated solution was incubated with [^3H]GABA (10 nM, Amersham) and GABA (90 nM, Sigma) for 1 min. In case of [^3H]β-alanine uptake, incubation solution contained 100 nM [^3H]β-alanine (Amersham) and 900 nM β-alanine (Sigma). After the incubation, samples were immediately filtered through glass fiber filters and washed twice with ice-cold HEPES buffer. The [^3H]GABA level inside the plasma membrane vesicles was determined by liquid scintillation method. Although this method is generally used to measure GABA uptake, we applied it to follow GABA release due to the simplicity and reliability of the assay. We also determined GABA release by preloading [^3H]GABA into NPMV vesicles and measuring the [^3H]GABA level in the intracellular and extracellular milieu. […] Non-specific uptake was determined in the presence of 1 mM guvacine. The radioactivity of samples was counted in HiSafe 3 (Perkin Elmer) scintillation mixture.

[2] = test system: acute rat hippocampal slices; assay: [3H]GABA efflux from acute rat hippocampal slices (microvolume superfusion); type: cell-based
Procedure: Radiolabeling of 400 µm thick acute slices was conducted in 200 µl of ACSF in a glass tube. […] To preferentially label the cytosolic over the vesicular pools, incubation of slices at 30°C lasted for 10 min [54]. Slices were washed with fresh ACSF containing GABA-T inhibitors, thereafter placed in a custom-built closed micro-volume (50 µl) chamber secured in a water bath thermostated at 30°C [55]. […] The superfusate was collected in 0.5 ml fractions. After washing for 10 min, 10 fractions were collected to define the basal release of radioactivity (‘pre-stimulus’). At this point, the hippocampal slice was exposed to 100 µM Glu for a period of 10 min (‘drug application’), followed by further 10 min of washing with ACSF (‘washout’). Radioactivity of each 0.5 ml fraction counted in 3 ml HiSafe 3 scintillation mixture was expressed as the percentage of the actual radioactivity content of the slice (fractional release). Fractional release data from individual slices were normalized to a first order exponential curve (obtained by fitting the pre-stimulus and the last 3 washout values). Normalized percent efflux data from fractions of ‘pre-stimulus’ (1–10 min) versus ‘drug application’ (11–20 min) periods were averaged and compared by statistical analysis.

rat hippocampus = assay: In vivo microdialysis and HPLC amino acid detection in the hippocampus
Procedure: Male Wistar rats (300–400 g) were anaesthetized with halothane (1% in air) and microdialysis probes were implanted into the ventral hippocampus (A: −5.0, L: 5.0, V: −8.0) as described previously. To minimize tissue damage, the final position of the probes was reached slowly, in not less than 20 min. Perfusion of artificial cerebrospinal fluid, containing 144 mM NaCl, 3 mM KCl, 1 mM MgCl2, 2 mM CaCl2 (pH 7.4), was performed at a rate of 1 µl/min. The dialysate samples during 20 min were stored at −20°C. To establish the background amino acid concentration, each experiment started with the collection of three control samples with <10% variation. NNC-711 was applied bilaterally for 60 min followed by the simultaneous application of t-PDC and NNC-711 for 60 min. Concentration of amino acids was measured by pre-column derivatization of primary amino acids with orthophthalaldehyde (OPA, Sigma). Derivatization was performed at pH 10.4 in the presence of mercaptoethanol. OPA-derivatized amino acids were detected with fluorescence detector excitation wavelength 340 nm and emission wavelength 440 nm. Because of the instability of OPA derivatives, the HPLC technique was automated on an HP 1100 series system. Amino acids were separated on HP Hypersyl ODS reversed-phase columns (200×2.1 mm) filled with 5 µm C-18 spherical packing material. Eluent A was 0.1 M phosphate buffer containing 0.5% (vol/vol) tetrahydrofuran (Merck), pH 5.6, while eluent B contained 70% acetonitrile (Merck) in eluent A, pH 5.6. The gradient profile was: 12% B at 0 min, 23% B at 9 min, 36% B at 18 min, 100% B at 20 min, 100% B at 25 min and 12% B at 30 min. The column equilibration time was 8 min. External standards of 10 µM amino acids were injected after every 20 samples. Chromatograms were evaluated with HP Chem-Station software. Concentration of GABA measured in dialysate samples collected during drug applications were related to averaged GABA concentration of control samples collected for an hour prior to drug application and were given as percent changes.

human NPMVs = assay: [3H]GABA uptake in human brain tissue NPMVs; type: biochemical; conditions: 100 µM NNC-711; hippocampus, cortical gray and white matter, spinal cord white matter, choroid plexus, corpus callosum
Procedure: as §1

hippocampus = conditions: cited from earlier work
rat cortex NPMVs = assay: [3H]GABA release from NPMV vesicles preloaded with [3H]GABA; type: biochemical; conditions: 10 min incubation with Glu, n = 3
Procedure: as §1

rat cerebrocortical NPMV = assay: Total extracellular GABA by HPLC in rat cerebrocortical NPMV samples; type: biochemical; conditions: 300 µM Glu, n = 3
GAT-2/3 = assay: [3H]β-alanine uptake in rat cerebrocortical NPMV fraction; type: biochemical; conditions: n = 3
Procedure: as §1

Compound: CC[C@@H](C(N)=O)N1CCCC1=O [levetiracetam]
- GAT-3 expression in the hippocampus (GAT-3): up-regulate GAT-3 expression

Compound: [15NH2][13C@@H]([13CH2][13CH2][13C](=O)O)[13C](=O)O [[^13C]Glu, [U-^13C/^15N]Glu]
- share of extracellularly applied [13C]Glu converted to [13C]GABA and released (Glu decarboxylase (GAD); 300 µM [13C]Glu, 30 min, rat cortical NPMV): ~5%

Compound: NNC(N)=O [SCB, semicarbazide]
- modulation of the effect of Glu on GABA transport / cytosolic GABA level in rat cortical NPMV ([1]; 100 µM NNC-711 present): did not affect [^3H]GABA release
- elevation of [GABA]o ([3H]GABA efflux) ([2]; Glu-induced release, slices of SCB-treated animals (100 mg/kg i.p., 2 mM present), n = 7): 145±14 % of pre-stimulus control
- effect on [13C]GABA formation (Glu decarboxylase (GAD); SCB treatment, rat cortical NPMV fraction): completely blocked

Compound: CN1C(=O)CC(=O)N(c2ccccc2)c2cc(Cl)ccc21 [clobazam]
- GAT-3 expression in the hippocampus (GAT-3): up-regulate GAT-3 expression

Compound: O=C(O)[C@@H]1CN[C@@H](C(=O)O)C1 (relative stereo) [t-PDC, L-trans-pyrrolidine-2,4-dicarboxylate]
- effect on GABA transport in rat cortical NPMV ([1]; 10 min preincubation, 100 µM NNC-711 (Figure 1B)): able to affect GABA transport
- [Arginine]o in the rat hippocampus in vivo (rat hippocampus; control for non-specific release, n = 10): 94±32 % of control
- [GABA]o in the rat hippocampus in vivo (rat hippocampus; microdialysis application, t-PDC applied together with NNC-711, n = 10): 233±33 % of control
- inhibition of [3H]GABA uptake in human brain tissue samples (human NPMVs): able to inhibit [^3H]GABA uptake in all investigated areas
- neuronal damage after in vivo administration in the hippocampus (hippocampus): did not produce cell death
- neuronal damage in vivo (hippocampus; very high concentration (25–100 mM)): did not evoke neuronal damage in vivo

Compound: N[C@@H](CCC(=O)O)C(=O)O [Glu, L-glutamate]
- IC50 ([1]; 10 min preincubation, 100 µM NNC-711, rat cerebrocortical NPMV, n = 7, read-out: IC50, inhibition of [3H]GABA uptake): 11 ± 0.1 µM
- inhibition of GABA uptake ([1]; preincubation of vesicles with Glu for 10 minutes, in the presence of NNC-711): 52%
- IC50 (rat cortex NPMVs): 13.1 ± 1.6 µM
- elevation of [GABA]o ([3H]GABA efflux) ([2]; 100 µM Glu in low-[Ca2+]/high-[Mg2+] buffer, n = 5): 148.3±15.5 % of pre-stimulus control
- elevation of [GABA]o ([3H]GABA efflux) ([2]; 100 µM Glu in the presence of glutamate receptor antagonists (DL-AP5 50 µM, CNQX 10 µM, (S)-MCPG 500 µM), n = 7): 128.5±13.4 % of pre-stimulus control
- elevation of [GABA]o ([3H]GABA efflux) ([2]; 100 µM Glu, control conditions, n = 6): 149±14 % of pre-stimulus control
- share of average [GABA]o increase remaining ([2]; Glu-induced release in the presence of Glu receptor antagonists): 58%
- increase of the extracellular GABA level (HPLC) (rat cerebrocortical NPMV; SCB-treated rats): 35±6%
- increase of the extracellular GABA level (HPLC) (rat cerebrocortical NPMV; control rats): 46±3%
- inhibition of [3H]GABA uptake in human brain tissue samples (human NPMVs): able to inhibit [^3H]GABA uptake in all investigated areas
- effect on cytosolic β-alanine level ([3H]β-alanine uptake) (GAT-2/3): reduce cytosolic level
